# According to US20240270821A1, “GIP/GLP1/GCG TRI-RECEPTOR AGONISTS AND USES THEREOF” (priority 2023, published 2024):
# Read-outs that look alike come from different tables or passages of the source. Starred links: 1 amine or outer side, 2 acyl side, 3 side chain; linkers in the order of their positions; H or OH if unused. Non-standard residues stand in square brackets, D forms with d. Residues, ends and D or L forms follow the SMILES beside them. Groups on a side chain read outwards from the residue. No end group written: not given here. *: point of attachment. C20 diacid = O=C(O)CCCCCCCCCCCCCCCCCCC(=O)*; C18 diacid = O=C(O)CCCCCCCCCCCCCCCCC(=O)*; αMePhe(2-F) = C[C@](N)(Cc1ccccc1F)C(=O)O; γGlu = O=C(O)[C@H](CCC(=O)[*:2])N[*:1]; αMe4Pal = C[C@](N)(Cc1ccncc1)C(=O)O; αMeY = C[C@](N)(Cc1ccc(O)cc1)C(=O)O; αMeF = C[C@](N)(Cc1ccccc1)C(=O)O; 4Pal = N[C@@H](Cc1ccncc1)C(=O)O; Aad = N[C@@H](CCCC(=O)O)C(=O)O; αMeL = CC(C)C[C@](C)(N)C(=O)O; αMeS = C[C@](N)(CO)C(=O)O; Orn = NCCC[C@H](N)C(=O)O; AEEA = NCCOCCOCC(=O)O; Aib = CC(C)(N)C(=O)O
# What was measured:
# Format in all cases: cell-based
# hGIPR [1] = biological target: T1, hGIPR (Homo sapiens, UniProt P48546); test: Functional cAMP activity in the presence of 1% HSA; details: read-out: cAMP Rel EC50, hGIPR
# T1 sequence (P48546 22-466): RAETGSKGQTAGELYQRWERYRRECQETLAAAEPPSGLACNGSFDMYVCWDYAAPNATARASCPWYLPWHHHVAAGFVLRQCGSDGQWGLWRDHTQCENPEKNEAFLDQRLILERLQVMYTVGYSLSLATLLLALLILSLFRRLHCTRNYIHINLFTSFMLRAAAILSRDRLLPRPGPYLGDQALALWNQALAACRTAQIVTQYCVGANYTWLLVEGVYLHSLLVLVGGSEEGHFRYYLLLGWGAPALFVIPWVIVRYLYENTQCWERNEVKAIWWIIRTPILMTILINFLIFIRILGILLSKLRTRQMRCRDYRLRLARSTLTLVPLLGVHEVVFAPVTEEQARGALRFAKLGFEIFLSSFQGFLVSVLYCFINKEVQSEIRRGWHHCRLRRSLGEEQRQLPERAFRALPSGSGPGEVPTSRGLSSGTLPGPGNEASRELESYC
# hGLP-1R [2] = biological target: T2, hGLP-1R (Homo sapiens, UniProt P43220); test: Functional cAMP activity in the presence of 1% HSA; details: read-out: cAMP Rel EC50, hGLP-1R
# human GcgR = human GcgR (Homo sapiens, UniProt P47871); test: Functional cAMP activity in the presence of 1% HSA; details: read-out: cAMP Rel EC50, hGcgR
# hGIPR [3] = biological target: T1, hGIPR; test: Functional cAMP activation in the presence of 0.1% casein (no HSA); details: read-out: Relative cAMP EC50, hGIPR;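 as to Relative cAMP EC50, hGIPR: intracellular cAMP rise after 30 min at 37 °C read by HTRF against a standard curve, scaled between buffer alone (0%) and top control ligand concentration (100%), four-parameter fit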;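 as to Relative cAMP EC50, hGLP-1R: intracellular cAMP rise after 30 min at 37 °C read by HTRF, normalized between buffer only (0%) and maximal control ligand (100%), four-parameter variable-slope fit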;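 as to Relative cAMP EC50, hGcgR: intracellular cAMP rise after 30 min at 37 °C, read by HTRF against a cAMP standard curve, scaled from buffer only (0%) to maximal control ligand response (100%)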
# hGLP-1R [4] = biological target: T2, hGLP-1R; test: as above; details: read-out: Relative cAMP EC50, hGLP-1R
# hGcgR = hGcgR (Homo sapiens, UniProt P47871); test: as above; details: read-out: Relative cAMP EC50, hGcgR;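 also: intracellular cAMP rise after 30 min at 37 °C, read by HTRF against a cAMP standard curve, scaled from buffer only (0%) to maximal control ligand response (100%)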
# [5] = in the presence of 0.1% casein (no HSA), geometric mean
# Chain of human GcgR (P47871 26-477): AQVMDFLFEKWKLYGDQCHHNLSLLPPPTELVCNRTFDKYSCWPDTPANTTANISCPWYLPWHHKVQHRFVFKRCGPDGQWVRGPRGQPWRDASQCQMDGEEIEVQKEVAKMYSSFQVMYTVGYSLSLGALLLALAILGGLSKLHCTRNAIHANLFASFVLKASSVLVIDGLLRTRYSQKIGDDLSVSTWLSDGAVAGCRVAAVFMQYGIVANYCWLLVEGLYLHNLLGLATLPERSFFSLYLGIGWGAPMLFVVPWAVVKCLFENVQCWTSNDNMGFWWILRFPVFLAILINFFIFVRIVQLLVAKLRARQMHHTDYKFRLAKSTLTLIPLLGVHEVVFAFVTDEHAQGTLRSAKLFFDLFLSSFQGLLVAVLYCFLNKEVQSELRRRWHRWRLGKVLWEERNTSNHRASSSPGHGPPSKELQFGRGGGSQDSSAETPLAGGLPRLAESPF
# Chain of hGcgR (P47871 26-477): as above
# T2 sequence (P43220 24-463): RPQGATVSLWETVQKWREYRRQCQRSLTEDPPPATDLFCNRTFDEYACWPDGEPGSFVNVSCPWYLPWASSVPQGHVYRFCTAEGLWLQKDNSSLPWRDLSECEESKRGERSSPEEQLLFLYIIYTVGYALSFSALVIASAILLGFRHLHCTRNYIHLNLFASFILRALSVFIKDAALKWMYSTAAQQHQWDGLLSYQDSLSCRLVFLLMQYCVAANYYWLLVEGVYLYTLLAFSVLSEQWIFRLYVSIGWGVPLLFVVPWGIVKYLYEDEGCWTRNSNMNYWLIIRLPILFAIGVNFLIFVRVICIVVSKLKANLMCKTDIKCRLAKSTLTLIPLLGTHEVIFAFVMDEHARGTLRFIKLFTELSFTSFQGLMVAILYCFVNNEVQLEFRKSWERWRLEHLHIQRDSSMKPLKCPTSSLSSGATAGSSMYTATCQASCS
Molecule,EC50 (hGIPR [1]) [nM],EC50 (hGLP-1R [2]) [nM],EC50 (human GcgR) [nM],EC50 (hGIPR [3]; [5]) [nM],EC50 (hGLP-1R [4]; [5]) [nM],EC50 (hGcgR; [5]) [nM],EC50 (hGIPR [3]) [nM],EC50 (hGLP-1R [4]) [nM],EC50 (hGcgR) [nM]
CC[C@H](C)[C@H](NC(=O)[C@H](CC(C)C)NC(=O)[C@](C)(Cc1ccc(O)cc1)NC(=O)[C@@H](CCC(=O)O)NC(=O)[C@@H](NC(=O)[C@H](Cc1ccccc1)NC(=O)[C@H](CCCN)NC(=O)C(C)(C)NC(=O)[C@H](CCC(N)=O)NC(=O)[C@H](C)NC(=O)[C@H](CCCCNC(=O)CC[C@H](NC(=O)CC[C@H](NC(=O)CCCCCCCCCCCCCCCCC(=O)O)C(=O)O)C(=O)O)NC(=O)[C@H](CCCN)NC(=O)[C@H](CC(=O)O)NC(=O)[C@H](CC(C)C)NC(=O)[C@](C)(CC(C)C)NC(=O)[C@@H](NC(=O)[C@](C)(CO)NC(=O)[C@H](Cc1ccncc1)NC(=O)[C@H](CC(=O)O)NC(=O)[C@H](CO)NC(=O)[C@@H](NC(=O)[C@](C)(Cc1ccccc1F)NC(=O)[C@@H](NC(=O)CNC(=O)[C@H](CCC(N)=O)NC(=O)C(C)(C)NC(=O)[C@@H](N)Cc1ccc(O)cc1)[C@@H](C)O)[C@@H](C)O)[C@@H](C)CC)[C@@H](C)CC)C(=O)N[C@@H](CCC(=O)O)C(=O)NCC(=O)NCC(=O)N1CCC[C@H]1C(=O)N[C@@H](CO)C(=O)N[C@@H](CO)C(=O)NCC(=O)N[C@@H](CCC(=O)O)C(=O)N1CCC[C@H]1C(=O)N1CCC[C@H]1C(=O)N1CCC[C@H]1C(=O)N[C@@H](CO)C(N)=O [Example 375] (H-Y[Aib]QGT[αMePhe(2-F)]TSD[4Pal][αMeS]I[αMeL]LD[Orn]K([γGlu-γGlu-C18 diacid])AQ[Aib][Orn]FI[dE][αMeY]LIEGGPSSGEPPPS-NH2),1.78,18,137,0.0165,0.299,1.32,,,
H-Y[Aib]QGT[αMePhe(2-F)]TSD[4Pal]SILLDKK([AEEA-γGlu-C18 diacid])AQ[Aib]AFIEYL[Aad]EGGPSSGAPPPSGTGE-NH2 [Example 663],10.2,79,226,,,,0.0893,1.29,1.95
Y[Aib]QGT[αMePhe(2-F)]TSD[4Pal]SI[αMeL]LD[Orn]K([AEEA-γGlu-C18 diacid])AQ[αMe4Pal][Orn]FI[dE][αMeY]LIEGGPSSGAPPPEGGGE-NH2 [Example 758],1.59,31.3,388,,,,0.0212,0.195,3.99
CC[C@H](C)[C@H](NC(=O)[C@H](Cc1ccccc1)NC(=O)[C@H](C)NC(=O)C(C)(C)NC(=O)[C@H](CCC(N)=O)NC(=O)[C@H](C)NC(=O)[C@H](CCCCNC(=O)CC[C@H](NC(=O)CC[C@H](NC(=O)CCCCCCCCCCCCCCCCC(=O)O)C(=O)O)C(=O)O)NC(=O)[C@H](CCCCN)NC(=O)[C@H](CC(=O)O)NC(=O)[C@H](CC(C)C)NC(=O)[C@H](CC(C)C)NC(=O)[C@@H](NC(=O)[C@H](CO)NC(=O)[C@H](Cc1ccncc1)NC(=O)[C@H](CC(=O)O)NC(=O)[C@H](CO)NC(=O)[C@@H](NC(=O)[C@](C)(Cc1ccccc1F)NC(=O)[C@@H](NC(=O)CNC(=O)[C@H](CCC(N)=O)NC(=O)C(C)(C)NC(=O)[C@@H](N)Cc1ccc(O)cc1)[C@@H](C)O)[C@@H](C)O)[C@@H](C)CC)C(=O)N[C@@H](CCC(=O)O)C(=O)N[C@@H](Cc1ccc(O)cc1)C(=O)N[C@@H](CC(C)C)C(=O)N[C@@H](CCC(=O)O)C(=O)N[C@@H](CCC(=O)O)C(=O)NCC(=O)NCC(=O)N1CCC[C@H]1C(=O)N[C@@H](CO)C(=O)N[C@@H](CO)C(=O)NCC(=O)N[C@@H](C)C(=O)N1CCC[C@H]1C(=O)N1CCC[C@H]1C(=O)N1CCC[C@H]1C(=O)N[C@@H](CO)C(N)=O [Example 413] (H-Y[Aib]QGT[αMePhe(2-F)]TSD[4Pal]SILLDKK([γGlu-γGlu-C18 diacid])AQ[Aib]AFIEYLEEGGPSSGAPPPS-NH2),23.5,41.4,629,,,,0.0881,0.564,6.3
H-Y[Aib]QGT[αMePhe(2-F)]TSD[4Pal]SILLDKK([γGlu-γGlu-C18 diacid])AQ[Aib]AFIEYLEEGGPSSGAPPPSGEGE-NH2 [Example 621],7.31,111,901,,,,0.0661,1.28,6.81
CC[C@H](C)[C@H](NC(=O)[C@H](Cc1ccccc1)NC(=O)[C@H](C)NC(=O)C(C)(C)NC(=O)[C@H](CCC(N)=O)NC(=O)[C@H](C)NC(=O)[C@H](CCCCNC(=O)COCCOCCNC(=O)CC[C@H](NC(=O)CCCCCCCCCCCCCCCCC(=O)O)C(=O)O)NC(=O)[C@H](CCCCN)NC(=O)[C@H](CC(=O)O)NC(=O)[C@H](CC(C)C)NC(=O)[C@H](CC(C)C)NC(=O)[C@@H](NC(=O)[C@H](CO)NC(=O)[C@H](Cc1ccc(O)cc1)NC(=O)[C@H](CC(=O)O)NC(=O)[C@H](CO)NC(=O)[C@@H](NC(=O)[C@](C)(Cc1ccccc1)NC(=O)[C@@H](NC(=O)CNC(=O)[C@H](CCC(N)=O)NC(=O)C(C)(C)NC(=O)[C@@H](N)Cc1ccc(O)cc1)[C@@H](C)O)[C@@H](C)O)[C@@H](C)CC)C(=O)N[C@@H](CCC(=O)O)C(=O)N[C@@H](Cc1ccc(O)cc1)C(=O)N[C@@H](CC(C)C)C(=O)N[C@@H](CCC(=O)O)C(=O)N[C@@H](CCC(=O)O)C(=O)NCC(=O)NCC(=O)N1CCC[C@H]1C(=O)N[C@@H](CO)C(=O)N[C@@H](CO)C(=O)NCC(=O)N[C@@H](C)C(=O)N1CCC[C@H]1C(=O)N1CCC[C@H]1C(=O)N1CCC[C@H]1C(=O)N[C@@H](CO)C(N)=O [Example 392] (H-Y[Aib]QGT[αMeF]TSDYSILLDKK([AEEA-γGlu-C18 diacid])AQ[Aib]AFIEYLEEGGPSSGAPPPS-NH2),28.7,41.5,611,,,,0.0571,0.253,3.02
Y[Aib]QGTFTSD[4Pal]S[Orn][αMeL]LD[Orn]K([γGlu-γGlu-C18 diacid])AQ[αMe4Pal]QFIE[αMeY]LIEGGPSSGAPPPSGSEE-NH2 [Example 972],30.4,327,660,0.34,2.05,4.19,,,
H-Y[Aib]QGT[αMePhe(2-F)]TSD[4Pal][αMeS]I[αMeL]LD[Orn]K([γGlu-γGlu-C18 diacid])AQ[Aib][Orn]FI[dE][αMeY]LAEGGPSSGEPPPSGTGE-NH2 [Example 545],2.74,40.2,180,,,,0.0432,0.602,2.71
H-Y[Aib]QGT[αMePhe(2-F)]TSDYSKLLDKIAQK([AEEA-γGlu-C20 diacid])AFIEYLIEGGPSSGAPPPEGE-NH2 [Example 357],42.9,248,1810,0.077,0.625,6.21,,,
CC[C@H](C)[C@H](NC(=O)[C@H](Cc1ccccc1)NC(=O)[C@H](CCCN)NC(=O)C(C)(C)NC(=O)[C@H](CCC(N)=O)NC(=O)[C@H](C)NC(=O)[C@H](CCCCNC(=O)COCCOCCNC(=O)CC[C@H](NC(=O)CCCCCCCCCCCCCCCCC(=O)O)C(=O)O)NC(=O)[C@H](CCCN)NC(=O)[C@H](CC(=O)O)NC(=O)[C@H](CC(C)C)NC(=O)[C@](C)(CC(C)C)NC(=O)[C@@H](NC(=O)[C@H](CO)NC(=O)[C@H](Cc1ccncc1)NC(=O)[C@H](CC(=O)O)NC(=O)[C@H](CO)NC(=O)[C@@H](NC(=O)[C@](C)(Cc1ccccc1F)NC(=O)[C@@H](NC(=O)CNC(=O)[C@H](CCC(N)=O)NC(=O)C(C)(C)NC(=O)[C@@H](N)Cc1ccc(O)cc1)[C@@H](C)O)[C@@H](C)O)[C@@H](C)CC)C(=O)N[C@H](CCC(=O)O)C(=O)N[C@@](C)(Cc1ccc(O)cc1)C(=O)N[C@@H](CC(C)C)C(=O)N[C@@H](CC(C)C)C(=O)N[C@@H](CCC(=O)O)C(=O)NCC(=O)NCC(=O)N1CCC[C@H]1C(=O)N[C@@H](CO)C(=O)N[C@@H](CO)C(=O)NCC(=O)N[C@@H](CCC(=O)O)C(=O)N1CCC[C@H]1C(=O)N1CCC[C@H]1C(=O)N1CCC[C@H]1C(=O)N[C@@H](CO)C(N)=O [Example 367],4.89,30.1,668,0.0215,0.421,7.95,,,
